According to ChEMBL document CHEMBL1201862, “PubChem BioAssay data set” (2004):
Active and inactive are the calls of the source.

Key:
[1] = tested on: CHO-K1; assay: Counterscreen for antagonists of the orexin 1 receptor (OX1R; HCRTR1): Homogeneous time resolved fluorescence (HTRF)-based cell-based dose response assay to identify antagonists of the parental CHO-K1 cell line. [Related pubchem assays (depositor defined):AID434989, AID435008, AID463079, AID485270, AID492963, AID492964, AID492965, AID493232, AID504699, AID504701]; type: functional; conditions: Cricetulus griseus;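 also: potency for inhibition of ATP-stimulated IP1 production as antagonists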
[2] = Counterscreen for antagonists of the orexin 1 receptor (OX1R; HCRTR1): Fluorescence-based cell-based high throughput dose response assay to identify antagonists of the parental CHO cell line. [Related pubchem assays (depositor defined):AID434989, AID435008, AID463079, AID485270, AID492963, AID492964, AID492965, AID493232, AID504699, AID504701]; type: functional
[3] = target: T1, Orexin/Hypocretin receptor type 1 (Homo sapiens, UniProt O43613); assay: Homogeneous Time Resolved Fluorescence (HTRF)-based cell-based high throughput dose response assay for antagonists of the orexin 1 receptor (OX1R; HCRTR1). [Related pubchem assays (depositor defined):AID434989, AID435008, AID463079, AID485270, AID492963, AID492964, AID492965, AID493232, AID504717, AID504718]; type: functional
T1 sequence (O43613 whole entry): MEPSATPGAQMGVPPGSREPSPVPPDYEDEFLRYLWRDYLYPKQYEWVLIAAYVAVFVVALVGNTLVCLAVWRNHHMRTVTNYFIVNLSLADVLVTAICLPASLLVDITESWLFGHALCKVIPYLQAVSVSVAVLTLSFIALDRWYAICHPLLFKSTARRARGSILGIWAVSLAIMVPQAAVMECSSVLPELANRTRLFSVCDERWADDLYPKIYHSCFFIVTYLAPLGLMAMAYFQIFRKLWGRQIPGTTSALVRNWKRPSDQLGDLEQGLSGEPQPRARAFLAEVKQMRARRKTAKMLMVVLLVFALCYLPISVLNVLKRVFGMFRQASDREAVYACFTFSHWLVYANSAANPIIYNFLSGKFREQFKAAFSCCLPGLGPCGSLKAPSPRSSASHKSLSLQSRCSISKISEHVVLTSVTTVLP

[4] = target: T1, Orexin/Hypocretin receptor type 1; assay: Fluorescence-based cell-based high throughput dose response assay for antagonists of the orexin 1 receptor (OX1R; HCRTR1). [Related pubchem assays (depositor defined):AID434989, AID435008, AID463079, AID485270, AID492963, AID492964, AID492965, AID493232, AID504717, AID504718]; type: functional
[5] = target: T2, Orexin receptor type 2 (Homo sapiens, UniProt O43614); assay: Counterscreen assay for antagonists of the orexin 1 receptor (OX1R; HCRTR1): Fluorescence-based cell-based dose response assay for antagonists of the orexin 2 receptor (OX2R; HCRTR2), run by assay provider.; type: functional
T2 sequence (O43614 whole entry): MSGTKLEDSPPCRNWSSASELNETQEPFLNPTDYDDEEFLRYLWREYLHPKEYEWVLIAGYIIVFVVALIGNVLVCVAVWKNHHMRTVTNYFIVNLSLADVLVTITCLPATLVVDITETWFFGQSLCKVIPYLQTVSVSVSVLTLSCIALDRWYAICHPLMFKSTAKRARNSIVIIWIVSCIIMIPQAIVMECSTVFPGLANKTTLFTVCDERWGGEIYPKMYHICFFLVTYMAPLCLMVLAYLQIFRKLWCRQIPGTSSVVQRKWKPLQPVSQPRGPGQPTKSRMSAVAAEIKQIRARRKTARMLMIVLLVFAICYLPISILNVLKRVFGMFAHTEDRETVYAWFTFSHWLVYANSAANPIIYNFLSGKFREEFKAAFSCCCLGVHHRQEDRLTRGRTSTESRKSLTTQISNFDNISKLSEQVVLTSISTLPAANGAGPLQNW

[6] = target: T2, Orexin receptor type 2; assay: Counterscreen assay for antagonists of the orexin 1 receptor (OX1R; HCRTR1): Homogeneous Time Resolved Fluorescence (HTRF)-based cell-based dose response assay for antagonists of the orexin 2 receptor (OX2R; HCRTR2), run by assay provider.; type: functional
[7] = target: T3, Sentrin-specific protease 8 (Homo sapiens, UniProt Q96LD8); assay: inhibition of human SENP8 cleavage activity – biochemical, luminescence, SAR follow-up (AID 504501); type: functional
T3 sequence (Q96LD8 whole entry): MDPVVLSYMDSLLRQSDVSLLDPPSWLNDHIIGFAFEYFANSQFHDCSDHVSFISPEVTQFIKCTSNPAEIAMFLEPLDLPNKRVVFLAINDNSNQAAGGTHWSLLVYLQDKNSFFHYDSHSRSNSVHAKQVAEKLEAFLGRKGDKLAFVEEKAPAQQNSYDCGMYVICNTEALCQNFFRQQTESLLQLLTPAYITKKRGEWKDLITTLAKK

[8] = target: T3, Sentrin-specific protease 8; assay: inhibition of sentrin protease 8 – biochemical, luminescence, set 2, SAR follow-up (AID 588601); type: functional
[9] = target: T4, Caspase-3 (Homo sapiens, UniProt P42574); assay: SAR Analysis of small molecule inhibitors of Sentrin-specific proteases (SENPs) using a Caspase-3 Selectivity assay. [Related pubchem assays (depositor defined):AID2540, AID2599, AID434973, AID489001]; type: functional
T4 sequence (P42574 whole entry): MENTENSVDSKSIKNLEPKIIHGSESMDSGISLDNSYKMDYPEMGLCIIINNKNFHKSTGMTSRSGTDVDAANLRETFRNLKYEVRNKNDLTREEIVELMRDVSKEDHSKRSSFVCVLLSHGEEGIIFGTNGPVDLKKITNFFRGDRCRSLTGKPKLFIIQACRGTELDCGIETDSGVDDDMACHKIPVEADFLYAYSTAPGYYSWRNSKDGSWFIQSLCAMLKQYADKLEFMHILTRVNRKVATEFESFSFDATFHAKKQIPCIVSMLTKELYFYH

[10] = target: T5, Sentrin-specific protease 7 (Homo sapiens, UniProt Q9BQF6); assay: inhibition of human SENP7 cleavage activity – biochemical, luminescence, set 2, SAR follow-up (AID 588600); type: functional
T5 sequence (Q9BQF6 whole entry): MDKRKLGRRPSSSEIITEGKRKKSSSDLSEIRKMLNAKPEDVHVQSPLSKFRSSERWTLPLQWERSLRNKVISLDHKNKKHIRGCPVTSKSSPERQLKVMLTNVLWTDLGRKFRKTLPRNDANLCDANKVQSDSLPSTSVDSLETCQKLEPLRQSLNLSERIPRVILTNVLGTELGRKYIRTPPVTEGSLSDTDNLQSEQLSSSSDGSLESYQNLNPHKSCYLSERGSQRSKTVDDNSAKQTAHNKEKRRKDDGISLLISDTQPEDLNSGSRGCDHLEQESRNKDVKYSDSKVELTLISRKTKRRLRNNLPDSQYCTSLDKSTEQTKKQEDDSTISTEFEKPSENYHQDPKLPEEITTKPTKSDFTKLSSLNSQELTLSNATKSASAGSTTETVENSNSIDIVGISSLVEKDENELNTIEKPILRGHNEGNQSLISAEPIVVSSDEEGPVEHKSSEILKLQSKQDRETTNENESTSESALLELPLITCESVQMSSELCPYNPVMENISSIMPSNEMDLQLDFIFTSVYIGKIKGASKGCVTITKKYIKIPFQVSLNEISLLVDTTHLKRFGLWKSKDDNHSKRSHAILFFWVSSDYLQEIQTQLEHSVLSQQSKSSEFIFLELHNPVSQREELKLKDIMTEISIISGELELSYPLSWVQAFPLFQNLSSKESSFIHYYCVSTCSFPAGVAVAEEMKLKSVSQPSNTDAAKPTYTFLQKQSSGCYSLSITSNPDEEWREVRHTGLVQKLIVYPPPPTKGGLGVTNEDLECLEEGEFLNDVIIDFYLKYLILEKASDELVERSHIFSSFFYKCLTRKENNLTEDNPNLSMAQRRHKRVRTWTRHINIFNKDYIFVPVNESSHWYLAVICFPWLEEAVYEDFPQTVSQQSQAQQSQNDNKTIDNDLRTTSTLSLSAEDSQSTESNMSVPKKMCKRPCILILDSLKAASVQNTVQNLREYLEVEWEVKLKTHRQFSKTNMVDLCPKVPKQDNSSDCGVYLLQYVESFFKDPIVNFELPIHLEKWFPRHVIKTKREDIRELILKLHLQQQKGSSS

[11] = target: T6, Sentrin-specific protease 6 (Homo sapiens, UniProt Q9GZR1); assay: SAR Analysis of small molecule inhibitors of Sentrin-specific protease 6 (SENP6) using a Luminescent assay. [Related pubchem assays (depositor defined):AID2582, AID2599]; type: functional
T6 sequence (Q9GZR1 whole entry): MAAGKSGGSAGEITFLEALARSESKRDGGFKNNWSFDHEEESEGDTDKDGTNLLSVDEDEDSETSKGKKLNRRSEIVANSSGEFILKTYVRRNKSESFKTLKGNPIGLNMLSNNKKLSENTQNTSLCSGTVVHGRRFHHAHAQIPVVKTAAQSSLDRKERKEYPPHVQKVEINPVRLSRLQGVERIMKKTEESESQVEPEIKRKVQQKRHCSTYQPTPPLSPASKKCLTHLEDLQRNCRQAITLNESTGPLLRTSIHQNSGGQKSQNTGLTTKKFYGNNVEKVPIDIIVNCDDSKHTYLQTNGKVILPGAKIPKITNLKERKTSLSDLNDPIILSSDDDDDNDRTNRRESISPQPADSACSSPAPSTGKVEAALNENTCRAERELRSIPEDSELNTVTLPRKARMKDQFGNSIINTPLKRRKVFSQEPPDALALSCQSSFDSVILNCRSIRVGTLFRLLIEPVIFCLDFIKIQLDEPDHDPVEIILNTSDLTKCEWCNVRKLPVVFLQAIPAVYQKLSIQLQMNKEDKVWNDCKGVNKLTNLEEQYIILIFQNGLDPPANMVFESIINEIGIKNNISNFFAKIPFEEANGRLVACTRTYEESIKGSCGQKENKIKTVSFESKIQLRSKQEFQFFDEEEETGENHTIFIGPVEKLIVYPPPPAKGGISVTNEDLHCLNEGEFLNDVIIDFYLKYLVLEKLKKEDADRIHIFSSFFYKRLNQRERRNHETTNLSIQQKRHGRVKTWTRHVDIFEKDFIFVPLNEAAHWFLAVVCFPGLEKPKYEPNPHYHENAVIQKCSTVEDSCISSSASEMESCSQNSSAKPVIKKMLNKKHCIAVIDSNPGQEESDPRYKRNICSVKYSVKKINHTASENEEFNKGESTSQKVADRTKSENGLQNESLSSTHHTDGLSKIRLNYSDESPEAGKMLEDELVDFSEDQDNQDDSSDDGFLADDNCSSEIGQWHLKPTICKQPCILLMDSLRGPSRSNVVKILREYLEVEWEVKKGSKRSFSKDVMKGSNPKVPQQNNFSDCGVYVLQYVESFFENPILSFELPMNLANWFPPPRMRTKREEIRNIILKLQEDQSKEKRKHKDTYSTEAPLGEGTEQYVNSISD

[12] = target: T6, Sentrin-specific protease 6; assay: inhibition of human SENP6 catalytic domain – biochemical, luminescence, set 2, SAR follow-up (AID 588598); type: functional
[13] = target: T5, Sentrin-specific protease 7; assay: inhibition of human SENP7 cleavage activity – biochemical, luminescence, SAR follow-up (AID 504497); type: functional
[14] = viability of uninfected HEp-2 cells – cell-based, HTS, cytotoxicity control for RSV inhibitor project, dose response (AID 2410); type: functional; conditions: human respiratory syncytial virus
[15] = luciferase reporter signal suppression in cells – H4 neuroglioma cells, luminescence, dose response (AID 1990); type: functional, cell-based
[16] = Luminescence Cell-Based Dose Response HTS to Identify Inhibitors of 5'UTR Stem-Loop Driven Prion Protein mRNA Translation in H4 Neuroglioblastoma Cells. [Related pubchem assays: 1827 (Project Summary), 1813 (Primary HTS)]; type: functional
[17] = target: T7, Heat shock factor protein 1 (Mus musculus, UniProt P38532); assay: decrease of HSF1-responsive luciferase luminescence – cell-based, NIH3T3, dose retest, confirmation (AID 2382); type: functional;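 also: NIH3T3 fibroblasts with HSF1-driven luciferase reporter stressed by proteasome inhibitor MG132; luminescence from HSF1-driven luciferase expression after 8 hours of MG132 stress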
T7 sequence (P38532 whole entry): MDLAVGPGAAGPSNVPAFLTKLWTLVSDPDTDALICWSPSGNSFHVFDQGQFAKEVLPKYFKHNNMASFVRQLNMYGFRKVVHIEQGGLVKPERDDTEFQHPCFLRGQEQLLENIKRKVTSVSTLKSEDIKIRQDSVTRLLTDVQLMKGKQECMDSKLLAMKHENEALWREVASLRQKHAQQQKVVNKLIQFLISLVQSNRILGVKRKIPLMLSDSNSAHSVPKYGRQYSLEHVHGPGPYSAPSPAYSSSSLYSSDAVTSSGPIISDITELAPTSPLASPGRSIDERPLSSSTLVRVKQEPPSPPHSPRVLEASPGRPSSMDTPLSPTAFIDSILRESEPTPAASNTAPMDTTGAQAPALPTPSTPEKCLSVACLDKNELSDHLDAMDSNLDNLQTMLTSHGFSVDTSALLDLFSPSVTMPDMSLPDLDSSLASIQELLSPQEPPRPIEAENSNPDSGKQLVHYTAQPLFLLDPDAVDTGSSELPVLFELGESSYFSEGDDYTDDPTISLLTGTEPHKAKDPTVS

[18] = alpha-synuclein stem-loop luciferase translation blockers – H4 neuroglioma cells, luminescence, confirmation (AID 1988); type: functional, cell-based

| SMILES | IC50 [1] | IC50 [2] | IC50 [3] | IC50 [4] | IC50 [5] | IC50 [6] | IC50 [7] | IC50 [8] | IC50 [9] | IC50 [10] | IC50 [11] | IC50 [12] | IC50 [13] | CC50 [14] | EC50 [15] | EC50 [16] | EC50 [17] | EC50 [18] |
| --- | --- | --- | --- | --- | --- | --- | --- | --- | --- | --- | --- | --- | --- | --- | --- | --- | --- | --- |
| Cc1ccc(C)c(NP(=O)(Oc2ccccc2)Oc2ccccc2)c1 | > 66.2 µM (inactive) | 49 µM (inactive) | 5.47 µM (active) | 26.3 µM (inactive) | > 88.8 µM (inactive) | > 50 µM (inactive) |  |  |  |  |  |  |  |  |  |  |  |  |
| O=C(Nc1nc2ccccc2s1)c1cc2ccccc2s1 |  |  |  |  |  |  | 0.66 µM (active) | 0.543 µM (active) | 0.51 µM (active) | 0.589 µM (active) | 0.67 µM (active) | 0.58 µM (active) | 0.49 µM (active) |  |  |  |  |  |
| Cc1nc2c(ccc3nc(NC(=O)Cc4cccc5ccccc45)sc32)s1 | > 66.2 µM (inactive) | > 49.7 µM (inactive) | 1.45 µM (active) | 5.34 µM (active) | 17.6 µM (inactive) | > 50 µM (inactive) |  |  |  |  |  |  |  | 12.2 µM (active) | 16.3 µM (active) | > 120 µM (not active) | > 195 µM (not active) | > 60 µM (not active) |
